Marks after values point to notes of the source that are not given here.
Tests used:
[1] = test system: non-transgenic or wild-type SOD1-expressing fish; assay: axonal and total body length in non-transgenic or wild-type SOD1-expressing fish; assay type: in vivo; settings: zebrafish, average ± s.e.m.
Method: Y-axes show motor axon length of non-transgenic (black bar) or SOD1WT-expressing (white bar) zebrafish embryos, injected with either atg-RTK2 (shaded bars, Panel A) or atg-RTK1 morpholino (shaded bars, Panel B). Ctr-RTK2 and ctr-RTK1 were used as controls. Error bars are s.e.m.
To identify disease-modifying genes in ALS in an unbiased way, knockdown screening was performed in the mutant SOD1 zebrafish model (reference 13), using a library of 303 translation blocking morpholinos (atg-mo), of which 58 were targeting genes presumed to be neuronally expressed (according to the NCBI database) and 245 randomly chosen targeting genes. […] The morpholino yielding the highest rescue in two separate experiments was studied further. It targets zebrafish receptor tyrosine kinase 2 (RTK2, also known as epha4b), which has 67% identity and 80% homology to the human orthologue EPHA4. Knockdown of RTK2 in fish expressing mutant SOD1 completely and dose-dependently rescued the motor axonopathy (both axonal length and aberrant branching) caused by three different SOD1 mutations: A4V, G93A and G37R (FIG. 1, Panels A-F; Table 2). […] Receptor tyrosine kinase 1 (RTK1, also known as epha4a), the fish paralogue of RTK2, has 83% identity and 92% homology to human EPHA4. RTK1 knockdown was dose-dependently and equally protective as RTK2 knockdown (FIG. 1, Panel G; Table 4). […]

[2] = test system: mutant SOD1-overexpressing fish; assay: mutant SOD1-induced motor axonopathy in zebrafish embryos (percentage affected embryos, motor axon length); assay type: in vivo; settings: 30 hpf
From the text: FIG. 1: EphA4 knockdown rescues mutant SOD1-induced motor axonopathy. […] Abnormal branching is indicated with arrowhead. Y-axes show motor axon length of zebrafish embryos expressing wild-type SOD1 (black bar, Panels D-G) or mutant SOD1 (white bar, Panels D-G). Knockdown of RTK2 in SOD1A4V- (Panel D), SOD1G93A- (Panel E) and SOD1G37R- (Panel F) expressing fish was established by co-injection of increasing amounts of atg-RTK2 morpholino (shaded bars). RTK1 expression was inhibited in SOD1A4V-expressing fish by co-injection of atg-RTK1 morpholino (shaded bars, Panel G). Ctr-RTK2 and ctr-RTK1 were used as control. ANOVA and Bonferroni's multiple comparison tests were used for statistical analysis. Comparing axonal length in SOD1A4V fish injected with ctr-RTK2 (n=39) vs. different doses atg-RTK2: 3 ng (n=43, p=0.0059), 4.5 ng (n=37, p=0.0016, Panel D), SOD1G93A: ctr-RTK2 (n=60) vs. atg-RTK2: 1.5 ng (n=55, p=0.015), 3 ng (n=51, p=2.82×10-9), 4.5 ng (n=46, p=2.22×10-15, Panel E), SOD1G37R: ctr-RTK2 (n=37) vs. atg-RTK2: 3 ng (n=25, p=0.027), 4.5 ng (n=36, p=0.0018, Panel F) and SOD1A4V: ctr-RTK1 (n=49) vs. atg-RTK1: 1.5 ng (n=51, p=2.51×10-7), 3 ng (n=64, p=7.99×10-10), 4.5 ng (n=54, p<1×10-20, Panel G). Western blot of SOD1WT or SOD1A4V (1.76 ng) expressing zebrafish embryos (30 hpf), co-injected with either ctr-RTK1 or atg-RTK1 (4.5 ng). Sixty embryos were used per group with actin as the loading control (H). Immunostaining of rtk1 (green) in rhombomeres 3 and 5 and of ephrin-b2 (magenta) in rhombomere 4 in zebrafish embryos injected with either ctr-RTK1 or atg-RTK1 (4.5 ng). RTK1-depleted embryos show disorganized rhombomere boundaries (arrowhead, I, Scale bar 50 μm). Error bars are s.e.m.
FIG. 2: RTK2 knockdown protects motor axons against SOD1^A4V-induced injury. Effect of RTK2 knockdown, established by injection of splice-rtk2 morpholino, on the motor axon length of SOD1^A4V-expressing zebrafish embryos (30 hpf). SOD1^WT-expressing fish and a non-functional five-base pair-mismatch control morpholino (ctr-RTK2) were used as control (Panel A). ANOVA and Bonferroni's multiple comparison tests were used for statistical analysis: SOD1^A4V/ctr-RTK2 (n=56) vs. SOD1^A4V/spl-RTK2 (n=60, 1.79×10^−4). Spl-RTK2 was designed against the exon 2 splice site of the zebrafish RTK2 pre-mRNA and alternatively skipped out exon 2. RT-PCR on non-transgenic fish (lane 1), ctr-RTK2-injected fish (lane 2) and spl-RTK2-injected fish (lane 3) at 30 hpf. Functional RTK2 mRNA, containing exon 2, is indicated by the 818-bp product (upper band) while non-functional RTK2 mRNA, lacking exon 2 is indicated by the 156-bp product (lower band), 60 embryos each group (Panel B). Error bars are s.e.m.
FIG. 12: Pharmacological inhibition of EphA4 receptor signaling protects against mutant SOD1 pathology in vivo. Effect of treatment with Compound 1 (C1, 500 μM) on the motor axon length of zebrafish embryos (30 hpf). DMSO (1/250 dilution) was used as control (Panel A). ANOVA and Bonferroni's multiple comparison tests were used for statistical analysis: SOD1^A4V/C1 (n=68) vs. SOD1^A4V/DMSO (n=76, p=3.54×10^−5). Effect of KYL-peptide (3 mM) treatment of 60-day-old SOD1^G93A rats on disease onset (Panel B) and survival (Panel C). Artificial CSF (ACSF) was used as control. Average disease onset: 133 days (treated, n=21) versus 125 days (control, n=17, T-test p=0.044). Average survival: 148 days (treated, n=21) versus 139 days (controls, n=17, T-test p=0.041). Error bars are s.e.m.
Effect of RTK2 knockdown (established by injection of atg-RTK2 morpholino) on the percentage of affected wild-type SOD1 or mutant SOD1 (A4V, G93A, G37R) zebrafish embryos (30 hpf). Ctr-RTK2 morpholino was used as control. An embryo was considered as affected when it had more than 10% abnormally branched motor axons. Significance of mtSOD1/ctr-RTK2 (4.5 ng) vs. mtSOD1/atg-RTK2 (4.5 ng) was determined by Mann-Whitney test, * p=0.0075, ° p=0.039 and # p=0.0052. […]

[3] = target: EphA4 (Homo sapiens, UniProt P54764); settings: Noberini et al.; cited from earlier work
Sequence of EphA4 (P54764 20-986, species assumed): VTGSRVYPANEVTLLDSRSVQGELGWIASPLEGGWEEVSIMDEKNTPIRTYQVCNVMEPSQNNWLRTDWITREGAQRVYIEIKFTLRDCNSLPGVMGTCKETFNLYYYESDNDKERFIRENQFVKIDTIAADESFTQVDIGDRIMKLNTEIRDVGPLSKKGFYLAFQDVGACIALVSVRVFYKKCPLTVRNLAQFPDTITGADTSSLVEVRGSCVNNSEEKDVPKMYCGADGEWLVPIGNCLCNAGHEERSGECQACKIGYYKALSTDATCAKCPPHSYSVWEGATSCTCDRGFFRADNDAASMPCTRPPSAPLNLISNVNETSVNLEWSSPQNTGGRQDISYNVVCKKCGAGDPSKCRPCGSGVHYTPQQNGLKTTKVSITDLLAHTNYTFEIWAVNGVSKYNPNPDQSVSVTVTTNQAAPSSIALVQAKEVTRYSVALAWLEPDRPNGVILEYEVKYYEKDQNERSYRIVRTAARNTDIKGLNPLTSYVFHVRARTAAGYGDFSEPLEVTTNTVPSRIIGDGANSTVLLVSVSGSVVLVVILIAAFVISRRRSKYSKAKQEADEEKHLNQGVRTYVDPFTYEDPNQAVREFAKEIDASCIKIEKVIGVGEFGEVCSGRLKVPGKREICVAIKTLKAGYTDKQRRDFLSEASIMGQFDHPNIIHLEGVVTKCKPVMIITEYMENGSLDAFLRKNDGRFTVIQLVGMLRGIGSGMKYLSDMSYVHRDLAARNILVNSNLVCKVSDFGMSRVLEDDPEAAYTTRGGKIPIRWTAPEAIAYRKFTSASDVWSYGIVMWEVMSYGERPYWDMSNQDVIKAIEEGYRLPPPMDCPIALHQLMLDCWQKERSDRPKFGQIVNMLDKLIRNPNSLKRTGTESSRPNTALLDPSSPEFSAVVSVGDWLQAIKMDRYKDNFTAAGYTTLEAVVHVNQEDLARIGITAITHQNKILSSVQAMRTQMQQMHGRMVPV

Molecule	body length [1] [mm]	% affected embryos (more than 10% abnormally branched motor axons) ([2]; mtSOD1 A4V zebrafish embryos, morpholino 1.5 ng)	% affected embryos (more than 10% abnormally branched motor axons) ([2]; mtSOD1 A4V zebrafish embryos, morpholino 3.0 ng)	% affected embryos (more than 10% abnormally branched motor axons) ([2]; mtSOD1 A4V zebrafish embryos, morpholino 4.5 ng)	% affected embryos (more than 10% abnormally branched motor axons) ([2]; mtSOD1 G37R zebrafish embryos, morpholino 1.5 ng)	% affected embryos (more than 10% abnormally branched motor axons) ([2]; mtSOD1 G37R zebrafish embryos, morpholino 3.0 ng)	% affected embryos (more than 10% abnormally branched motor axons) ([2]; mtSOD1 G37R zebrafish embryos, morpholino 4.5 ng)	% affected embryos (more than 10% abnormally branched motor axons) ([2]; mtSOD1 G93A zebrafish embryos, morpholino 1.5 ng)	% affected embryos (more than 10% abnormally branched motor axons) ([2]; mtSOD1 G93A zebrafish embryos, morpholino 3.0 ng)	% affected embryos (more than 10% abnormally branched motor axons) ([2]; mtSOD1 G93A zebrafish embryos, morpholino 4.5 ng) [° %]	% affected embryos (more than 10% abnormally branched motor axons) ([2]; wtSOD1 zebrafish embryos, morpholino 4.5 ng) [%]	inhibition of ephrin binding to EphA4 [3]
5′-AATCCAAAGGGTAGCCA-TTTTCAGG-′3 (antisense AATCCAAAGGGTAGCCATTTTCAGG; morpholino, chemistry not fully specified) [atg-RTK2]	2.70±0.01	29 (41) %	18 (44) %	8* %	34 (26) %	8 (25) %	16# %	55 (47) %	50 (54) %	23	12	–
Cc1ccc(C)n1-c1ccc(O)c(C(=O)O)c1 [compound 2]	–	–	–	–	–	–	–	–	–	–	–	selectively inhibit ephrin binding to EphA4

Reference: patent publication US9187784B2, “EphA4 is a disease modifier in motor neuron disease” (VIB VZW, priority 2011, dated 2015)
